# Assay results: patent publication US5179084A, “Antiviral phosphoric acid esters of oxetanocins” (Nippon Kayaku Kabushiki Kaisha, priority 1989, dated 1993)
# What was measured:
# [1] = tested on: cytomegalovirus (A0169 strain); experiment: Anti-cytomegalovirus activity, plaque formation in human fetal fibroblasts; format: cell-based; conditions: Human betaherpesvirus 5, Fibroblast, 240 h, 100 PFU, 37° C., 10 days, read-out: Anti-cytomegalovirus Activity ED50 (50% inhibitory value)
# Method: Anti-cytomegalovirus activity was determined by the following manner. A 35 mm.PHI. dish containing a single layer of human fetal fibroblasts was infected with 100 PFU (plaque forming units) of cytomegalovirus (A0169 strain). After adsorption for one hour, a medium (0.5% agarose, 2% fetal calf serum) containing a varied concentration of the compound of the present invention was superposed thereon, and the whole was cultured at 37° C. for 10 days in 5% (v/v) carbon dioxide incubator, after which the formation of plaque was measured. The results are shown in Table 3 in terms of 50% inhibitory value (ED50).
# HIV = experiment: Anti-HIV activity in MT-4 cells, development of virus antigen by indirect fluorescent antibody method; format: cell-based; conditions: for EC50: Human immunodeficiency virus 1, MT4, 96 h, MT-4 cells, 4 days culture after HIV infection, read-out: Development of Virus Antigen Activity ED50; for anti-HIV activity (in words): summary of results
# Method: MT-4 cell (about 10,000 cells/ml) was added to a 24 well tray, and then 100 μl of a solution containing a predetermined quantity of Compound No. 1 of the present invention was added. After culturing at 37° C. for 5 hours in 5% (v/v) carbon dioxide incubator, 10^3 to 10^4 infection units of HIV was added and cultured for 4 days. Then, a part of the cultured fluid was coated onto a slide glass and immobilized with acetone, after which development of virus antigen was observed by indirect fluorescent antibody method.
# As the primary antibody of the fluorescent antibody method, a serum of AIDS patient was used. As its secondary antibody, FITC-labelled […] was used.
# [2] = biological target: T1, reverse transcriptase (RTase) of HIV (Human immunodeficiency virus type 1 group M subtype B, UniProt P04585); experiment: Inhibition of HIV reverse transcriptase (RTase), 3H-AMP uptake; format: biochemical, human immunodeficiency virus (HTLV-IIIB)
# T1 construct: Measurement of Activity of Reverse Transcriptase (RTase) of HIV; endogenous in cells; host or cells: MOLT-4/HTLV-IIIB cells persistently infected with HIV (viral protein made by the infection; crude lysate)
# Method: Measurement of Activity of Reverse Transcriptase (RTase) of HIV
# MOLT-4/HTLV-IIIB cells which were persistently infected with HIV were destroyed with Triton X-100 or the like to prepare crude enzyme (RTase).
# Using poly(dT) and oligo(dA) as template primers, the following reaction solution was used.
# 2. Composition of reaction solution
# ______________________________________
# 5 mg/ml Bovine serum albumin
# 1M Tris-HCl buffer (pH 7.8)
# 100 mM Dithiothreitol 2.0
# 5 units/ml Oligo(dA) 4.0
# Uptake of ^3 H-AMP in the acid-insoluble fraction in the reaction solution under the above conditions was determined by a liquid scintillation counter.
# [3] = biological target: HBV-intrinsic DNA polymerase (Hepatitis B virus adr4, UniProt P12933); experiment: Inhibitory activity on HBV-intrinsic DNA polymerase, HBV core particles from HB611 cells; format: biochemical
# Method: 1. Partial purification of HBV core particles
# After HB611 cells were homogenized with buffer solution for extraction shown below, the centrifugal supernatant (14000 rpm, 0° C., 30 minutes) was overlaid on 30% saccharose-containing buffer solution for extraction, which was subjected to supercentrifugation (35000 rpm, 4° C., 18 hours) to give crude core particle precipitates. The crude core particles were suspended in the buffer solution for extraction and purified by cesium chloride density-gradient centrifugation method to give partially purified core particles showing a density of 1.30 to 1.35 g/ml.
# Buffer solution for extraction:
# 2-mercaptoethanol/1 mM PMSF): 10 mM
# Tris-hydrochloride (pH 7.4), 1 mM EDTA, 10 mM
# 2. Measurement of HBV-intrinsic polymerase activity
# The partially purified core particles were added to the reaction solution shown below. After incubating at 37° C. for 2 hours in the presence of Compound No. 3 in various concentrations, dCTP was added thereto in a final concentration of 1 mM. After incubation at 37° C. for an additional an hour, proteinase K, SDS, EDTA and tRNA were added thereto in final concentrations of 0.5 mg/ml, 1%, 10 mM and 200 μg/ml, respectively, followed by incubation at 45° C. for 2 hours. Thereafter HBV-DNA was purified by phenolchloroform extraction and ethanol precipitation and then subjected to electrophoresis with 1.5% agarose. Radioactive uptake in HBV-DNA was determined by autoradiography. The autoradiogram was scanned by a densitometer to calculate the inhibitory activity of Compound No. 3 against HBV-DNA polymerase.
# Reaction solution: containing 50 mM Tris-hydrochloride
# (pH 7.4), 30 mM magnesium chloride, 0.1 M
# ammonium chloride, 0.2% 2-mercaptoethanol,
# 200 μM each of dATP, dGTP and dTTP
# [4] = tested on: DNA virus such as cytomegalovirus, hepatitis B virus, herpes virus; experiment: Antiviral activity (summary statement); conditions: summary of results
# Chain of HBV-intrinsic DNA polymerase (P12933 whole entry): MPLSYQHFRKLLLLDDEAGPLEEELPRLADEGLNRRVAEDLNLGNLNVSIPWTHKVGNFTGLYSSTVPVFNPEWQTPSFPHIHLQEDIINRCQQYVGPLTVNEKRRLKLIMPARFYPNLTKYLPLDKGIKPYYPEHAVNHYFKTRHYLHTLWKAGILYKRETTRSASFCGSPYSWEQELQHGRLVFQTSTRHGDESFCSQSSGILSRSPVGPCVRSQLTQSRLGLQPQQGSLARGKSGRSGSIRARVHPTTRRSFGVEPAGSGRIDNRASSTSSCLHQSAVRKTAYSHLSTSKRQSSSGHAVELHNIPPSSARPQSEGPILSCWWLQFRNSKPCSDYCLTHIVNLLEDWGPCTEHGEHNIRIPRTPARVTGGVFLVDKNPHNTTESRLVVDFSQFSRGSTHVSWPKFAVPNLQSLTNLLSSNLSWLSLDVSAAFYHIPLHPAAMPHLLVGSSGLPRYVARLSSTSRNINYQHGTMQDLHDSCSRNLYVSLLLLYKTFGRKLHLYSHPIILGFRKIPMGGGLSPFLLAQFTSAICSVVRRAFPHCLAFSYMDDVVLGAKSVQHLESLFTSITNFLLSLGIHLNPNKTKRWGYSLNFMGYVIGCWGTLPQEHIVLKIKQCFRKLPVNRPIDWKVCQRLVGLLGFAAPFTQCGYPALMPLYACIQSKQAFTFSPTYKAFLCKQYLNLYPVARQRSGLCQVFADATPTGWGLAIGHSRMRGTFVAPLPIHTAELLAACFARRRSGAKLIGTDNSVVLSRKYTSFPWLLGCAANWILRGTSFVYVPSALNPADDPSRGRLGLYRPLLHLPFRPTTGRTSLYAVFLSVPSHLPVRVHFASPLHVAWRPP
structure (smiles),measurement,setting,value
Nc1ncnc2c1ncn2[C@@H]1O[C@H](COP(=O)(O)O)[C@H]1CO [Compound No. 1],EC50,[1],1.85 µg/mL
same,EC50,HIV,0.1 µg/mL
same,anti-HIV activity (in words),HIV,excellent anti-HIV activity
Nc1ncnc2c1ncn2[C@@H]1O[C@H](COP(=O)(O)OP(=O)(O)OP(=O)(O)O)[C@H]1CO [Compound No. 2],inhibition at 4.17 µM,"[2]; 4.17 μM, 37° C., 1 hour",1%
same,inhibition at 12.5 µM,"[2]; 12.5 μM, 37° C., 1 hour",33.9%
same,inhibition at 125 µM,"[2]; 125 μM, 37° C., 1 hour",93%
same,inhibition at 417 µM,"[2]; 417 μM, 37° C., 1 hour",98.8%
same,inhibition at 42.7 µM,[2]; read-out: RTase Inhibition (%),69.4%
same,reverse transcriptase inhibitory action of HIV (in words),[2]; summary of results,shows reverse transcriptase inhibitory action of HIV
Nc1nc2c(ncn2[C@@H]2O[C@H](COP(=O)(O)OP(=O)(O)OP(=O)(O)O)[C@H]2CO)c(=O)[nH]1 [Compound No. 3],inhibition at 100 µM,"[3]; 100 μM, read-out: Inhibition Rate (HBV-DNA polymerase)",50.7%
same,inhibition at 200 µM,"[3]; 200 μM, read-out: Inhibition Rate (HBV-DNA polymerase)",88.8%
same,inhibition at 400 µM,"[3]; 400 μM, read-out: Inhibition Rate (HBV-DNA polymerase)",96.8%
same,inhibition of DNA polymerase of DNA virus (in words),"[3]; summary of results, 'the aforesaid DNA virus'",inhibits DNA polymerase of the aforesaid DNA virus
Nc1nc2c(ncn2[C@@H]2O[C@H](COP(=O)(O)O)[C@H]2CO)c(=O)[nH]1 [Compound No. 5],EC50,[1],0.4 µg/mL
same,antiviral activity against DNA virus (in words),[4],excellent antiviral activity against DNA virus
Nc1ncnc2c1ncn2[C@H]1C[C@@H](COP(=O)(O)O)O1 [Compound No. 6],EC50,HIV,0.007 µg/mL
same,anti-HIV activity (in words),HIV,excellent anti-HIV activity
